Consider 1 compound from patent US20230374103A1, “Wnt SIGNALING PATHWAY INHIBITOR” (OSAKA UNIVERSITY, priority 2020, published 2023).

One assay addresses T1, binding of LGR4 to RSPO1 (Homo sapiens, UniProt Q9BXB1).
T1 construct: host or cells: HEK293
T1 sequence (Q9BXB1 25-951): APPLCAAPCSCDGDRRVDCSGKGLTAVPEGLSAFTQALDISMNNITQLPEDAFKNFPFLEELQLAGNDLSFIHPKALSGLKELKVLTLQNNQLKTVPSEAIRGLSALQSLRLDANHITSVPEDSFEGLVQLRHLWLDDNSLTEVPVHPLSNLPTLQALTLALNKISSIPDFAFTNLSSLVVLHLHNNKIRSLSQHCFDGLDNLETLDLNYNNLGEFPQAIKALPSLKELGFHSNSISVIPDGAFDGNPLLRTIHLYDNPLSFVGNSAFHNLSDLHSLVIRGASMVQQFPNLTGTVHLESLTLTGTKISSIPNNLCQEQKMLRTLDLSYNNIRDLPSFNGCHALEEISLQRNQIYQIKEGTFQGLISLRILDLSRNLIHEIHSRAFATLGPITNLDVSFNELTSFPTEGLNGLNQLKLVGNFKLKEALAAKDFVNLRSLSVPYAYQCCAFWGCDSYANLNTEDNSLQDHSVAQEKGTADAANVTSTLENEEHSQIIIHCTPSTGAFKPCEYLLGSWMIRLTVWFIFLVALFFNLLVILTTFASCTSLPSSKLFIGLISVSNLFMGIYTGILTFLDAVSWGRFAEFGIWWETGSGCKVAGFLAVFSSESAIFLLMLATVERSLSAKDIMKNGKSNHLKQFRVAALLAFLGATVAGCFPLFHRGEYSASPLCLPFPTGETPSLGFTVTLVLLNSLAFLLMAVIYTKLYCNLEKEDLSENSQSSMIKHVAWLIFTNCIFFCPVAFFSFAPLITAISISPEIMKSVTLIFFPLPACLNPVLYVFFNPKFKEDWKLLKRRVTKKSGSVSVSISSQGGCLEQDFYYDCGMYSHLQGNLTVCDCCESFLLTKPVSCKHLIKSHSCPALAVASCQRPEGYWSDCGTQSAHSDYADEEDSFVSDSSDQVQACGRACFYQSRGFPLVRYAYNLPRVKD
The assay is described as follows: Competitive binding analysis of LGR4 and biotinylated RSPO1 (Flag-LGR4 transfected HEK293 cells, immunoprecipitation). The conditions noted are these: 50 ng/mL biotinylated RSPO1, 2 hours, MHP1-7 (FIG. 4). On the procedure: HEK293 cells were incubated with 100 μg/mL of RANKL peptide or biotinylated RANKL peptide for 30 minutes, followed by immunoprecipitation. For competitive binding analysis, HEK293 cells were transfected with a Flag-tagged LGR4 expression plasmid (OriGene Technologies) for 48 hours, and incubated for 2 hours in the presence of 50 ng/mL L of recombinant human biotinylated RSPO1 (R&D System, #BT4645) and RANKL peptide. For immunoprecipitation, the cells were washed twice with cold PBS and dissolved in a lysis buffer (50 mM Tris-HCL, pH 7.4, 150 mM NaCl, 5 mM EDTA, 0.5% NP40, 10% glycerol and protease inhibitor cocktail (Roche)). The sample was centrifuged at 16,000 g for 10 minutes. The supernatant was collected, and the protein concentration was determined. Immunoprecipitation from samples containing equal amounts of protein was performed at 4° C. overnight using high-capacity streptavidin agarose (Thermo Fisher Scientific or Anti-FLAG M2 Affinity Gel (Sigma-Aldrich), followed by washing twice with a lysis buffer, and elution with 2× Laemmli Sample Buffer at 37° C. for 30 minutes before Western blotting. The blotted membrane was incubated with the primary antibody at 4° C. overnight, washed with TBS containing 0.1% Tween-20, then incubated with the HRP-conjugated secondary antibody at room temperature for 1 hour, and then incubated with Chemi-Lumi One L (Nacalai Tesque). […]

A further assay deals with A549 cells. The assay is described as follows: Proliferation assay (MTT) of A549 cells. It is filed as cell-based, human. On the procedure: The influence RANKL peptide on the proliferation of A549 cells (human lung alveolar basal epithelial cells: high expression of both LGR4 and RSPO3 was confirmed) was examined. Specifically, the following procedure was performed. MHP1 was administered at 1 ng/ml to 100 μg/ml to A549 cells, and the cell viability was calculated by MTT assay after 40 hours.

The test system of assay [1] is bleomycin-induced scleroderma model. The assay is described as follows: Early administration test in bleomycin-induced scleroderma model. The class given is in vivo, C57BL6/J mice. The conditions noted are these: 800 μg/mouse i.p. 5 days/week for 14 days in parallel with bleomycin. On the procedure: As test animals, C57BL6/J mice (female, 8 weeks old) were prepared. 200 μg/mouse of bleomycin was subcutaneously injected at a frequency of 5 days/week for 14 days, and in parallel with this, 800 μg/mouse of saline or RANKL peptide was intraperitoneally administered at a frequency of 5 days/week for 14 days. The body weight was measured periodically during the dosing period. The mice were sacrificed 14 days after the start of administration and the skin tissue of the bleomycin-administered portion was stained with Masson's trichrome to evaluate fibrosis. Further, the expression of collagen gene mRNA, which is a fibrosis index, in the skin was evaluated.

Molecules are shown by their SMILES. Residues, ends and D or L forms follow the SMILES beside them.

As to `CC[C@H](C)[C@H](NC(=O)[C@H](CO)NC(=O)[C@@H](NC(=O)[C@H](CCCCN)NC(=O)[C@@H](NC(=O)[C@@H](NC(=O)[C@H](Cc1ccc(O)cc1)NC(=O)[C@@H](NC(=O)[C@H](CCSC)NC(=O)[C@H](CC(C)C)NC(C)=O)C(C)C)C(C)C)C(C)C)[C@@H](C)O)C(=O)N[C@@H](CCCCN)C(=O)N[C@H](C(=O)N1CCC[C@H]1C(=O)N[C@@H](CO)C(=O)N[C@@H](CO)C(=O)N[C@@H](Cc1c[nH]cn1)C(=O)N[C@@H](CC(N)=O)C(=O)N[C@@H](CC(C)C)C(=O)N[C@@H](CCSC)C(=O)N[C@@H](CCCCN)C(=O)NCC(=O)NCC(=O)N[C@@H](CO)C(=O)N[C@H](C(=O)N[C@@H](CCCCN)C(=O)N[C@@H](CC(N)=O)C(=O)N[C@@H](Cc1c[nH]c2ccccc12)C(=O)N[C@@H](CO)C(=O)NCC(=O)N[C@@H](CC(N)=O)C(N)=O)[C@@H](C)O)[C@@H](C)CC` [MHP1-7] (Ac-LMVYVVKTSIKIPSSHNLMKGGSTKNWSGN-NH2), on binding of LGR4 to RSPO1, the “RSPO1 in the total cell lysate and the lysate immunoprecipitated with FLAG (Streptavidin-HRP)” value is on record as “reduced”; the “binding of LGR4 to RSPO1” value was “inhibits”. Also, the “proliferation of lung cancer cells (cell viability, MTT)” value in the assay with A549 cells (A549 cells, 1 ng/ml to 100 μg/ml, 40 hours, MHP1-AcN (FIG. 14)) is on record as “inhibited”. Besides, in the assay with A549 cells (along with the inhibition of the proliferation), the “Wnt signaling pathway in A549 cells” value is listed as “inhibited”. The “skin thickening and fibrosis (Masson's trichrome, dermis thickness)” value in assay [1] (MHP1-7 (FIG. 5)) is “inhibited”. Further, in assay [1] (MHP1-7 (FIG. 6)), the “expression of the collagen gene mRNA in skin” value is on record as “inhibited”. Besides, the “weight loss (body weight)” value in assay [1] (MHP1-7 (FIG. 7)) is on record as “suppressed”.
